{"source": "ChEMBL document CHEMBL1139753", "about": "“Synthesis, in vitro and in vivo cytotoxicity of 6,7-diaryl-2,3,8,8a-tetrahydroindolizin-5(1H)-ones” (Bioorg Med Chem Lett, 2007)"}
{"test_system": "HCT-116", "assay": "Cytotoxicity against HCT116 cells after 48 hrs", "assay_type": "functional, cell-based", "conditions": "Homo sapiens, HCT-116, 48 h", "units": {"IC50": "µM"}}
{"molecule": "O=C1C(c2ccccc2)=C(c2ccc(O)cc2)CC2CCCN12", "note": "(stereo not given)", "IC50": 9}
{"molecule": "COc1ccc(C2=C(c3ccc(C)cc3)C(=O)N3CCCC3C2)cc1", "note": "(stereo not given)", "IC50": 10}
{"molecule": "O=C1N[C@H]2[C@H](CS[C@H]2CCCCC(=O)OC(=O)CCCCCNOc2ccc(C3=C(c4ccccc4)C(=O)N4CCCC4C3)cc2)N1", "note": "(stereo not given in full)", "IC50": 17}
{"molecule": "COc1ccc(C2=C(c3ccc(OC)c(OC)c3)C(=O)N3CCCC3C2)cc1", "note": "(stereo not given)", "IC50": 5}
{"molecule": "COc1ccc(C2=C(c3cccc(N)c3)C(=O)N3CCCC3C2)cc1", "note": "(stereo not given)", "IC50": "> 25"}
{"molecule": "COc1ccc(C2=C(c3ccc(Cl)c(Cl)c3)C(=O)N3CCCC3C2)cc1", "note": "(stereo not given)", "IC50": 4}
{"molecule": "COc1ccc(C2=C(c3ccc(Cl)cc3)C(=O)N3CCCC3C2)cc1", "note": "(stereo not given)", "IC50": 13}
{"molecule": "COc1ccc(C2=C(c3ccc(OC)cc3)C(=O)N3CCCC3C2)cc1", "note": "(stereo not given)", "IC50": 3.2}
{"molecule": "COc1ccc(C2=C(c3ccccc3)C(=O)N3CCCC3C2)cc1", "note": "(stereo not given)", "IC50": 0.39}
{"molecule": "COc1ccc(C2=C(c3ccc(OC)c(OC)c3)C(=O)N3CCCC3C2)cc1OC", "note": "(stereo not given)", "IC50": "> 10"}
{"molecule": "O=C1C(c2ccccc2)=C(c2ccc(OCc3ccccc3)cc2)CC2CCCN12", "note": "(stereo not given)", "IC50": 8.9}
{"molecule": "COc1ccc(C2=C(c3cccc(Cl)c3)C(=O)N3CCCC3C2)cc1", "note": "(stereo not given)", "IC50": 8}
{"molecule": "COc1ccc(C2=C(c3ccccc3Cl)C(=O)N3CCCC3C2)cc1", "note": "(stereo not given)", "IC50": 8}
{"molecule": "COc1ccc(C2=C(c3ccc(N=[N+]=[N-])cc3)C(=O)N3CCCC3C2)cc1", "note": "(stereo not given)", "IC50": 25}
{"molecule": "COc1ccc(C2=C(c3cc(OC)c(OC)c(OCc4ccccc4)c3)CC3CCCN3C2=O)cc1OC", "note": "(stereo not given)", "IC50": 3.3}
